In USRE47689E1, “Compounds for treating spinal muscular atrophy” (PTC Therapeutics, Inc., priority 2011, dated 2019):

Legend:
Smn protein = Smn protein assay in cultured cells (SMN HTRF); assay type: cell-based, human; conditions: 48 hours; for EC1.5x (concentration giving 1.5-fold Smn protein increase): SMA Type 1 patient fibroblast cells (GM03813), 7-point concentration curve, SMN HTRF, concentration producing 1.5 times Smn protein vs DMSO vehicle control, read-out: EC1.5x for Smn protein expression; for maximum fold (Fold) increase of Smn protein: SMA patient fibroblast cells, 7-point concentration data, fold increase relative to vehicle control (SMN HTRF)
How it was run: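 Lysates in RIPA with protease inhibitors are incubated overnight at room temperature with HTRF anti-SMN antibodies. EC1.5x is derived from fold increase in ΔF over vehicle.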

[1] = tested on: SMN2 minigene (full length SMN2 minigene mRNA containing SMN2 exon 7); assay: SMN2 minigene mRNA splicing RT-qPCR assay in cultured cells; assay type: cell-based, human; conditions: Homo sapiens, HEK293-H; HEK293H cells stably transfected with SMN2-A minigene; 24 hours; 7-point concentration curve; 1.5-fold relative to vehicle-treated cells; read-out: EC1.5x for production of full length SMN2 mRNA
How it was run: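 HEK293H cells stably carrying the SMN2-A minigene treated 24 h at 37° C with compound (DMSO, 200× stock), then lysed. Multiplex RT-qPCR (SMN primers 0.4 μM final; 40 cycles) measures full-length exon 7-containing minigene mRNA, normalized to GAPDH and to vehicle; EC1.5x derived and binned by stars.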

| melting point [°C] | SMILES | EC1.5x (concentration giving 1.5-fold Smn protein increase) (Smn protein) [nM] | maximum fold (Fold) increase of Smn protein (Smn protein) | EC (1.5-fold) [1] [µM] |
| --- | --- | --- | --- | --- |
| 180 to 183 | CSc1cccc(-c2cc3ccc(N4CCNCC4)cc3oc2=O)n1 [Cpd 445, 3-[6-(methylsulfanyl)pyridin-2-yl]-7-(piperazin-1-yl)-2H-chromen-2-one] | – | * (maximum fold increase of ≤1.2) | 3 to 30 |
| 184 to 186 | CCNCCCc1ccc2cc(-c3cn4cc(C)nc(C)c4n3)c(=O)oc2c1 [Compound 926, 3-(6,8-dimethylimidazo[1,2-a]pyrazin-2-yl)-7-[3-(ethylamino)propyl]-2H-chromen-2-one] | < 300 | **** (fold increase between >1.5 and ≤1.65) | < 0.1 |
| 231 to 233 | Cc1cn2cc(-c3cc4ccc(N5CCN6CCC[C@H]6C5)cc4oc3=O)ccc2n1 [Cpd 651, 7-[(8aS)-hexahydropyrrolo[1,2-a]pyrazin-2(1H)-yl]-3-(2-methylimidazo[1,2-a]pyridin-6-yl)-2H-chromen-2-one] | < 300 | *** (fold increase between >1.35 and ≤1.5) | < 0.1 |
| 173 to 176 | Cc1cn2cc(-c3cc4ccc(N5CCN(C(C)C)CC5)cc4oc3=O)cc2c(C)n1 [Compound 709, 3-(1,3-dimethylpyrrolo[1,2-a]pyrazin-7-yl)-7-[4-(propan-2-yl)piperazin-1-yl]-2H-chromen-2-one] | 300 to 1000 | **** (fold increase between >1.5 and ≤1.65) | < 0.1 |
| 253 to 255 | CN1CCN(c2ccc3cc(-c4cn5cnccc5n4)c(=O)oc3c2)CC1 [Cpd 458, 3-(imidazo[1,2-c]pyrimidin-2-yl)-7-(4-methylpiperazin-1-yl)-2H-chromen-2-one] | – | *** (fold increase between >1.35 and ≤1.5) | 0.3 to 1 |
| > 300 | Cc1cnc2nc(-c3cc4ccc(N5CCNCC5)cc4oc3=O)cn2c1 [Cpd 241, 3-(6-methylimidazo[1,2-a]pyrimidin-2-yl)-7-(piperazin-1-yl)-2H-chromen-2-one] | – | * (maximum fold increase of ≤1.2) | 0.3 to 1 |
| 222 to 226 | Cc1cn2cc(-c3cc4ccc(C5CCN(CCO)CC5)cc4oc3=O)ccc2n1 [Compound 829, 7-[1-(2-hydroxyethyl)piperidin-4-yl]-3-(2-methylimidazo[1,2-a]pyridin-6-yl)-2H-chromen-2-one] | < 300 | ***** (fold increase >1.65) | < 0.1 |
| 201 to 206 | C[C@@H]1CN(c2ccc3cc(-c4cn(-c5ccccn5)cn4)c(=O)oc3c2)C[C@H](C)N1 [Cpd 433, 7-[(3R,5S)-3,5-dimethylpiperazin-1-yl]-3-[1-(pyridin-2-yl)-1H-imidazol-4-yl]-2H-chromen-2-one] | – | * (maximum fold increase of ≤1.2) | 3 to 30 |
| 209 to 215 | CCN1CC[C@@H](Nc2ccc3cc(-c4cn5cc(C)nc(C)c5n4)c(=O)oc3c2)C1 [Compound 731, 3-(6,8-dimethylimidazo[1,2-a]pyrazin-2-yl)-7-{[(3R)-1-ethylpyrrolidin-3-yl]amino}-2H-chromen-2-one] | – | *** (fold increase between >1.35 and ≤1.5) | < 0.1 |
| 192 to 196 | Cc1cn2cc(-c3cc4ccc(CN(C)C)cc4oc3=O)nc2c(C)n1 [Cpd 846, 7-[(dimethylamino)methyl]-3-(6,8-dimethylimidazo[1,2-a]pyrazin-2-yl)-2H-chromen-2-one] | 300 to 1000 | ***** (fold increase >1.65) | 0.1 to 0.3 |

Continued, compound first:

| SMILES | melting point [°C] | EC1.5x (concentration giving 1.5-fold Smn protein increase) (Smn protein) [nM] | maximum fold (Fold) increase of Smn protein (Smn protein) | EC (1.5-fold) [1] [µM] |
| --- | --- | --- | --- | --- |
| Cc1cn2cc(-c3cc4ccc(N5C[C@@H](C)N[C@@H](C)C5)cc4oc3=O)cc2c(C)n1 [Compound 645, 7-[(3R,5S)-3,5-dimethylpiperazin-1-yl]-3-(1,3-dimethylpyrrolo[1,2-a]pyrazin-7-yl)-2H-chromen-2-one] | 170 to 173 | < 300 | ***** (fold increase >1.65) | < 0.1 |
| C[C@@H]1CN(c2ccc3cc(-c4cn5cccnc5n4)c(=O)oc3c2)C[C@H](C)N1 [Compound 107, 7-[(3R,5S)-3,5-dimethylpiperazin-1-yl]-3-(imidazo[1,2-a]pyrimidin-2-yl)-2H-chromen-2-one] | 256 to 258 | 300 to 1000 | **** (fold increase between >1.5 and ≤1.65) | 0.1 to 0.3 |
| O=c1oc2cc(N3CCNCC3)ccc2cc1-c1cc2ccccc2s1 [Compound 407, 3-(1-benzothiophen-2-yl)-7-(piperazin-1-yl)-2H-chromen-2-one] | 243 to 245 | – | * (maximum fold increase of ≤1.2) | 0.3 to 1 |
| COc1cc(OC)cc(-c2cc3ccc(N4CCCNCC4)cc3oc2=O)c1 [Compound 387, 7-(1,4-diazepan-1-yl)-3-(3,5-dimethoxyphenyl)-2H-chromen-2-one] | 238 to 240 | – | * (maximum fold increase of ≤1.2) | 3 to 30 |
| Cc1cn2cc(-c3cc4ccc(N5CCN[C@@H](C)C5)cc4oc3=O)cc2cn1 [Compound 647, 7-[(3S)-3-methylpiperazin-1-yl]-3-(3-methylpyrrolo[1,2-a]pyrazin-7-yl)-2H-chromen-2-one] | 202 to 204 | < 300 | **** (fold increase between >1.5 and ≤1.65) | < 0.1 |
| COc1ccc(-c2cc3ccc(N4CCNCC4)cc3oc2=O)cc1C [Compound 541, 3-(4-methoxy-3-methylphenyl)-7-(piperazin-1-yl)-2H-chromen-2-one] | 171 to 173 | – | * (maximum fold increase of ≤1.2) | 1 to 3 |
| CN1CCN(c2cc(F)c3cc(-c4nc5ccccc5[nH]4)c(=O)oc3c2)CC1 [Compound 370, 3-(1H-benzimidazol-2-yl)-5-fluoro-7-(4-methylpiperazin-1-yl)-2H-chromen-2-one] | 281 to 284 | – | * (maximum fold increase of ≤1.2) | 0.3 to 1 |
| Cc1ccc2nc(-c3cc4ccc(CNC(C)CO)cc4oc3=O)cn2c1 (centres unmarked) [Compound 251, 7-{[(1-hydroxypropan-2-yl)amino]methyl}-3-(6-methylimidazo[1,2-a]pyridin-2-yl)-2H-chromen-2-one] | 224 to 227 | – | * (maximum fold increase of ≤1.2) | 3 to 30 |
| CCc1ccn2cc(-c3cc4ccc(N5C[C@@H](C)N[C@@H](C)C5)cc4oc3=O)nc2c1 [Compound 289, 7-[(3R,5S)-3,5-dimethylpiperazin-1-yl]-3-(7-ethylimidazo[1,2-a]pyridin-2-yl)-2H-chromen-2-one] | 183 to 188 | – | * (maximum fold increase of ≤1.2) | 0.3 to 1 |
| Cc1cn2cc(-c3cc4ccc(N5CCN[C@@H](C)C5)cc4oc3=O)nc2s1 [Compound 232, 3-(2-methylimidazo[2,1-b][1,3]thiazol-6-yl)-7-[(3S)-3-methylpiperazin-1-yl]-2H-chromen-2-one] | 177 to 182 | – | * (maximum fold increase of ≤1.2) | 0.3 to 1 |
| Cc1nn2cc(-c3cc4ccc(N5CCCNCC5)cc4oc3=O)nc2s1 [Compound 450, 7-(1,4-diazepan-1-yl)-3-(2-methylimidazo[2,1-b][1,3,4]thiadiazol-6-yl)-2H-chromen-2-one] | 215 to 218 | 1000 to 3000 | *** (fold increase between >1.35 and ≤1.5) | 1 to 3 |
| Cc1cc(F)c2nc(-c3cc4ccc(N5CCN6CCC[C@H]6C5)cc4oc3=O)cn2c1 [Compound 560, 3-(8-fluoro-6-methylimidazo[1,2-a]pyridin-2-yl)-7-[(8aS)-hexahydropyrrolo[1,2-a]pyrazin-2(1H)-yl]-2H-chromen-2-one] | 296 to 306 | < 300 | **** (fold increase between >1.5 and ≤1.65) | 0.1 to 0.3 |
| Cc1cn2cc(-c3cc4ccc(N5C[C@@H]6CCN(C)[C@@H]6C5)cc4oc3=O)nc2c(C)n1 [Compound 706, 3-(6,8-dimethylimidazo[1,2-a]pyrazin-2-yl)-7-[(3aS,6aS)-1-methylhexahydropyrrolo[3,4-b]pyrrol-5(1H)-yl]-2H-chromen-2-one] | 252 to 262 | 300 to 1000 | **** (fold increase between >1.5 and ≤1.65) | < 0.1 |
| CC(CO)NCc1ccc2cc(-c3nc4c(Cl)cccc4s3)c(=O)oc2c1 (centres unmarked) [Compound 270, 3-(4-chloro-1,3-benzothiazol-2-yl)-7-{[(1-hydroxypropan-2-yl)amino]methyl}-2H-chromen-2-one] | 186 to 190 | – | ** (fold increase between >1.2 and ≤1.35) | 1 to 3 |
